Test results as given in US20240246941A1, “SUBSTITUTED 4-(3-AMINOPROP-1-YL)AMINOQUINOLINE ANALOGS AS MODULATORS OF MELANOMA-ASSOCIATED ANTIGEN 11 UBIQUITIN LIGASE” (ST. JUDE CHILDREN'S RESEARCH HOSPITAL, INC., priority 2020, published 2024).

These compounds were tested against MAGE-A11:PCF11 (Homo sapiens (Human), UniProt P43364) (assay: TR-FRET single point screening at 15 μM). Details: single point TR-FRET screening at 15 μM against MAGE-A11:PCF11.
Assay type: binding
Design: unit not given here
Method in brief: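 Competition TR-FRET: compounds at final 15 μM mixed with 200 nM FAM-PCF11_4, 5 nM GST-MAGEA11 and 5 nM Tb-anti-GST in Tris pH 7.5/MgCl2/BSA/DTT buffer, room temperature, 90 min. Emission ratio 520/490 nm (340 nm excitation) expressed as % inhibition relative to positive and negative controls.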

MAGE-A11:PCF11, sequence (P43364 218-429): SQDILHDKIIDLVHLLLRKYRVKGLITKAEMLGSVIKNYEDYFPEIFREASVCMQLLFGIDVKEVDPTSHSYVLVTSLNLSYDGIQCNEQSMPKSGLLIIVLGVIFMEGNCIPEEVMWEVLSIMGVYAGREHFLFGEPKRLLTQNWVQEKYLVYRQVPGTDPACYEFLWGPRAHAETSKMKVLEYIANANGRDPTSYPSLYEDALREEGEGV

Row | Compound | TR-FRET signal
1 | Cc1ccc(F)cc1CN(CCCCNc1ccnc2cc(Cl)ccc12)Cc1ccccc1 [SJ000520449] | 42.32
2 | COc1ccc2nc3cc(Cl)ccc3c(NCCCNCc3ccc(Cl)c([N+](=O)[O-])c3)c2c1 [SJ000523036] | −95.38
3 | COc1ccc2nc3cc(Cl)ccc3c(NCCCNCc3cccs3)c2c1 [SJ000361088] | −453.5
4 | COc1ccc2nc3cc(Cl)ccc3c(NCCCNCc3cccc(C#N)c3)c2c1 [SJ000523037] | −333.2
5 | COc1ccc(OC(F)(F)F)cc1CN(CCCCNc1ccnc2cc(Cl)ccc12)Cc1ccccc1 [SJ000520447] | 26.66
6 | CCc1ccc(CNCCCNc2c3ccc(Cl)cc3nc3ccc(OC)cc23)cc1 [SJ000521005] | −390.4
7 | COc1ccc(N2CCN(c3c(S(=O)(=O)c4ccccc4)cnc4ccc(C)cc34)CC2)cc1 [SJ000083981] | −37.97
8 | COc1ccc(O)c(CN2CCC(Nc3ccnc4cc(Cl)ccc34)CC2)c1 [SJ000357527] | 7.779
9 | CCCCNCCCNc1c2ccc(Cl)cc2nc2ccc(OC)cc12 [SJ000520995] | −405.5
10 | Cc1ccc2ncc(S(=O)(=O)c3ccccc3)c(N3CCN(C)CC3)c2c1 [SJ000083945] | −8.419
11 | COc1ccc2ncc(S(=O)(=O)c3ccccc3)c(N3CCN(c4cccc(C)c4C)CC3)c2c1 [SJ000117082] | −241.8
12 | Clc1ccc2c(NCCCCN(Cc3ccccc3)Cc3ccccn3)ccnc2c1 [SJ000312690] | 9.531
13 | COc1ccc2nc3cc(Cl)ccc3c(NCCCNCCCSC)c2c1 [SJ000523025] | −336.9
14 | COc1ccc2nc3cc(Cl)ccc3c(NCCCNCc3ccc(Cl)cc3Cl)c2c1 [SJ000522958] | −97.83
15 | Clc1ccc2c(NCCCCN(Cc3ccccc3)Cc3ccncc3)ccnc2c1 [SJ000361190] | −9.945
16 | CCOc1ccc2ncc(S(=O)(=O)c3ccccc3)c(N3CCN(c4ccccc4)CC3)c2c1 [SJ000083975] | −12.06
17 | Cc1cc(NC(=O)CN2CCN(C(=O)c3ccco3)CC2)c2ccccc2n1 [SJ000111679] | −1.072
18 | CC(C)(C)CCN(CCCCNc1ccnc2cc(Cl)ccc12)Cc1ccccc1 [SJ000357537] | 34.54
19 | Cc1ccc(S(=O)(=O)c2cnc3ccc(C)cc3c2N2CCN(c3ccc(F)cc3)CC2)cc1 [SJ000117058] | −4.068
20 | COc1ccc2nc3cc(Cl)ccc3c(NCCCNCc3cn(C)c4ccccc34)c2c1 [SJ000520987] | −252.4
21 | Cc1cc(N2CCN(CC(O)CO)CC2)c2ccccc2n1 (stereo not drawn) [SJ000227653] | −4.954

Row | Compound | TR-FRET signal
22 | Clc1ccc2c(NC3CCN(Cc4ccc(Br)o4)CC3)ccnc2c1 [SJ000357512] | −4.381
23 | COc1ccc2nc3cc(Cl)ccc3c(NCCCNCc3cc(F)ccc3OC)c2c1 [SJ000520993] | −365.4
24 | COc1ccc2ncc(S(=O)(=O)c3ccc(C)cc3)c(N3CCN(c4ccccc4F)CC3)c2c1 [SJ000117076] | 6.02
25 | Cc1ccc(S(=O)(=O)N2CCN(c3ccnc4cc(Cl)ccc34)CC2)cc1 [SJ000192519] | −38.7
26 | Cc1cc(NC(=O)CN[C@H]2CCN(Cc3ccccc3)C2)c2ccccc2n1 [SJ000832405] | 4.364
27 | CCCCN(CCCCNc1ccnc2cc(Cl)ccc12)Cc1ccccc1 [SJ000357538] | 27.64
28 | CCN(CCO)CCCC(C)Nc1ccnc2cc(Cl)ccc12 (stereo not drawn) [SJ000286026] | 3.702
29 | CCCN(CCCCNc1ccnc2cc(Cl)ccc12)Cc1ccc[nH]1 [SJ000311198] | −0.9977
30 | CCOc1ccc2ncc(C(=O)c3ccc(OC)cc3)c(N3CCN(CC)CC3)c2c1 [SJ000247243] | −9.084
31 | CCOc1ccc2ncc(S(=O)(=O)c3ccc(Cl)cc3)c(N3CCN(CC)CC3)c2c1 [SJ000083969] | −4.989
32 | CCC(CC)CN1CCC(Nc2ccnc3cc(Cl)ccc23)CC1 [SJ000523086] | 9.754
33 | CCN1CCN(c2c(S(=O)(=O)c3ccc(Cl)cc3)cnc3ccccc23)CC1 [SJ000247367] | −2.261
34 | O=S(=O)(c1ccc(Cl)cc1)N1CCN(c2ccnc3cc(Cl)ccc23)CC1 [SJ000204656] | −34.39
35 | CCOC(=O)c1cnc2c(C)cc(Cl)cc2c1NCCN1CCOCC1 [SJ000129560] | 4.96
36 | CCOc1ccc2ncc(C(=O)c3ccc(C)cc3)c(N3CCN(C)CC3)c2c1 [SJ000247254] | −10.61
37 | COc1ccc2ncc(S(=O)(=O)c3ccc(C)c(C)c3)c(N3CCN(c4ccccc4F)CC3)c2c1 [SJ000117078] | −8.289
38 | CCCN(CCCNc1c2ccc(Cl)cc2nc2ccc(OC)cc12)Cc1ccc(-c2cccc(Cl)c2)o1 [SJ000523020] | −169.7
39 | O=S(=O)(c1ccccc1)c1cnc2ccc(F)cc2c1N1CCN(c2ccccc2)CC1 [SJ000083976] | −31.1
40 | COc1ccc2nc3cc(Cl)ccc3c(NCCCNCCC(C)c3ccccc3)c2c1 (stereo not drawn) [SJ000523027] | −340.3
41 | Fc1ccccc1CN(CCCCNc1ccnc2cc(Cl)ccc12)Cc1ccccc1 [SJ000361198] | 20.78
42 | CCc1ccc2ncc(S(=O)(=O)c3ccc(Cl)cc3)c(N3CCN(CC)CC3)c2c1 [SJ000083968] | −19.13

Same assay, conditions: single point TR-FRET screening of quinoline compounds against MAGE-A11:PCF11; 15 μM

Row | Compound | TR-FRET signal
43 | CCCN(CCCNc1ccnc2cc(Cl)ccc12)Cc1c(C)n(C)n(-c2ccccc2)c1=O [SJ000522755] | 13.64
44 | Oc1c(F)cc(F)cc1CN(CCCNc1ccnc2cc(Cl)ccc12)Cc1ccccc1 [SJ000357504] | 27.64
45 | Cn1ccnc1CNCCCNc1ccnc2cc(C(F)(F)F)ccc12 [SJ000521068] | 10.19
46 | CCCN(CCCNc1ccnc2cc(Cl)ccc12)Cc1c(Cl)ccc(Cl)c1Cl [SJ000523046] | 17.75
47 | CCCN(CCCNc1ccnc2cc(C(F)(F)F)ccc12)Cc1ccc(C)o1 [SJ000361261] | 23.91
48 | CCCN(CCCNc1ccnc2cc(Cl)ccc12)Cc1ccncc1 [SJ000357449] | 9.295
49 | CCCN(CCCNc1ccnc2cc(C(F)(F)F)ccc12)Cc1cc(C(F)(F)F)ccc1OC [SJ000520486] | 8.188
50 | CCCN(CCCNc1ccnc2cc(Cl)ccc12)Cc1ccccc1N [SJ000522747] | 15.43
51 | COc1ccc2nc3cc(Cl)ccc3c(NCCCNCc3ccc(-c4cccc(Cl)c4)o3)c2c1 [SJ000522959] | −47.42
52 | CCCN(CCCNc1ccnc2cc(Cl)ccc12)Cc1nccs1 [SJ000357454] | 11.96
53 | CCCN(CCCNc1c2ccc(Cl)cc2nc2ccc(OC)cc12)Cc1ccc(F)c(F)c1 [SJ000520942] | 0.9703
54 | Clc1ccc2c(NCCCNCc3ccc(Br)s3)ccnc2c1 [SJ000575193] | 15.34
55 | O=C(C[C@H]1CC[C@]2(CC1)OO[C@]1(O2)C2CC3CC(C2)CC1C3)NCCCNc1ccnc2cc(Cl)ccc12 [SJ000578380] | 28.48
56 | CCCN(CCCNc1c2ccc(Cl)cc2nc2ccc(OC)cc12)Cc1cc(OC)ccc1F [SJ000522965] | −81.24
57 | CCCN(CCCNc1c2ccc(Cl)cc2nc2ccc(OC)cc12)Cc1sccc1C [SJ000520921] | −83.81
58 | O=[N+]([O-])c1ccccc1CN(CCCNc1ccnc2cc(Cl)ccc12)Cc1ccccc1 [SJ000361177] | 16.42
59 | CC(C)CCc1ccc2c(NCCCNCc3ccco3)ccnc2c1 [SJ000311246] | 13.01
60 | FC(F)(F)c1ccc(-c2ccc3c(NCCCNCc4ccco4)ccnc3c2)cc1 [SJ000311278] | 56.21

Row | Compound | TR-FRET signal
61 | CCOC(=O)c1cnc2c(C)cccc2c1NCCCN1CCOCC1 [SJ000279636] | 3.353
62 | Fc1ccc(Oc2ccc3c(NCCCNCc4ccco4)ccnc3c2)cc1 [SJ000311222] | 9.365
63 | CCCN(CCCNc1ccnc2cc(Cl)ccc12)Cc1cc(OC(F)(F)F)ccc1OC [SJ000523011] | 15.67
64 | CCCN(CCCNc1ccnc2cc(C(F)(F)F)ccc12)CC1CCOC1 (stereo not drawn) [SJ000575190] | 1.787
65 | Fc1ccc(CN(CCCNc2ccnc3cc(Cl)ccc23)Cc2ccccc2)cc1F [SJ000361174] | 27.55
66 | CCCN(CCCNc1c2ccc(Cl)cc2nc2ccc(OC)cc12)Cc1cc2ccccc2s1 [SJ000522962] | −21.58
67 | CCCN(CCCNc1ccnc2cc(C(F)(F)F)ccc12)Cc1cccnc1Br [SJ000575180] | 5.164
68 | CCCN(CCCNc1ccnc2cc(C(F)(F)F)ccc12)Cc1cc(OC(F)(F)F)ccc1OC [SJ000520485] | 5.6
69 | Clc1ccc2c(NCCCNCc3csc4ccccc34)ccnc2c1 [SJ000521033] | 33.38
70 | CCCN(CCCNc1ccnc2cc(Cl)ccc12)Cc1cccc(C#N)c1 [SJ000522763] | 12.91
71 | CCCCCCN(CCC)CCCNc1ccnc2cc(Cl)ccc12 [SJ000523048] | 1.317
72 | FC(F)(F)c1cc(-c2ccc3c(NCCCNCc4ccco4)ccnc3c2)cc(C(F)(F)F)c1 [SJ000311270] | 59.71
73 | CCCN(CCCNc1ccnc2cc(C(F)(F)F)ccc12)Cc1scnc1C [SJ000575179] | 5.164
74 | CCOC(=O)c1cnc2c(C)c(Cl)ccc2c1NCCCN1CCOCC1 [SJ000129912] | −23.26
75 | CCCN(CCCNc1ccnc2cc(C(F)(F)F)ccc12)Cc1ccccc1O [SJ000361257] | 26.5
76 | c1coc(CNCCCNc2ccnc3cc(-c4ccc5c(c4)OCO5)ccc23)c1 [SJ000311290] | 30.79
77 | COc1cccc(F)c1CN(CCCNc1ccnc2cc(Cl)ccc12)Cc1ccccc1 [SJ000357500] | −2.857
78 | CCCN(CCCNc1ccnc2cc(C(F)(F)F)ccc12)Cc1ccc(CC)cc1 [SJ000521009] | 31.77
